{"source": "paper PMC10587169", "about": "“Tuning aminopolycarboxylate chelators for efficient complexation of trivalent actinides” (Scientific Reports, 2023)", "origin": "cited, not measured here", "conditions": "cited from earlier work", "note": "Read-outs that look alike come from different tables or passages of the source.", "data": [{"smiles": "O=C(O)CN(CCN(CC(=O)O)Cc1cccc(C(=O)O)n1)Cc1cccc(C(=O)O)n1", "note": "[H4octapa, 6,6′-((ethane-1,2-diylbis–((carboxymethyl)azanediyl))bis–(methylene))dipicolinic acid]", "values": [{"measurement": "pKa H2L2-", "setting": "I = 0.15 M NaCl at 25 °C", "value": "5.40 (1)"}, {"measurement": "pKa H3L-", "setting": "I = 0.15 M NaCl at 25 °C", "value": "3.65 (1)"}, {"measurement": "pKa H4L(aq)", "setting": "I = 0.15 M NaCl at 25 °C", "value": "2.97 (1)"}, {"measurement": "pKa H5L+", "setting": "I = 0.15 M NaCl at 25 °C", "value": "1.66 (1)"}, {"measurement": "pKa HL3-", "setting": "I = 0.15 M NaCl at 25 °C", "value": "8.52 (1)"}, {"measurement": "pKa H2L2-", "setting": "I = 0.16 M NaCl at 25 °C", "value": "5.43 (2)"}, {"measurement": "pKa H3L-", "setting": "I = 0.16 M NaCl at 25 °C", "value": "3.75 (1)"}, {"measurement": "pKa H4L(aq)", "setting": "I = 0.16 M NaCl at 25 °C", "value": "3.08 (1)"}, {"measurement": "pKa H5L+", "setting": "I = 0.16 M NaCl at 25 °C", "value": "2.21 (2)"}, {"measurement": "pKa H6L2+", "setting": "I = 0.16 M NaCl at 25 °C", "value": "1.61 (2)"}, {"measurement": "pKa H7L3+", "setting": "I = 0.16 M NaCl at 25 °C", "value": "0.12 (4)"}, {"measurement": "pKa HL3-", "setting": "I = 0.16 M NaCl at 25 °C", "value": "8.58 (1)"}]}]}
